{"source": "paper PMC7672424", "about": "(Nucleic Acids Research, 2020)", "key": {"HT29 xenograft": {"test_system": "HT29 xenograft", "test": "HT29 xenograft mouse model", "type": "in vivo", "description": "Male BALB/C-nu/nu mice (4 weeks old) were purchased from the Beijing Vital River Laboratory Animal Technology Co., Ltd. and housed at Experimental Animal Center of Huazhong Agriculture University (Wuhan, China) and maintained in pathogen-free conditions (12 h light–dark cycle at 24 ± 1°C with 60−70% humidity and provided with food and water ad libitum). HT29 cells were harvested during log-phase growth and were resuspended in FBS-free DMEM medium to the density of 4 × 10^6 cells per 100 μl. 100 μl cells were injected subcutaneously in the right back of the mice. Tumor growth was examined three times a week after implantation, until the tumor volume reached ∼40 mm^3. The mice were randomly divided into two groups, and each group had five mice. Subcutaneous injection was carried out with BMPQ-1 at a dose of 15 mg/kg for the mice in the experimental group. Mice in the control group were treated with an equivalent volume of normal saline. The volume of the tumor mass was measured with an electronic caliper and calculated as 1/2 × length × width^2 in mm^3. The tumors size and the body weight of the mice were measured every day after drug treatment, and growth curves were plotted using average tumor volume within each experimental group. After treatment for 3 weeks, tumor tissues were collected and tested for the weight and the volume.\nWe tested BMPQ-1 in a HT29 xenograft mouse model of human colon adenocarcinoma. HT29 tumors were established through the subcutaneous injection of HT29 cells into the right back of BALB/C-nu/nu mice ([57],[58]). The mice were divided into normal saline treated group, and BMPQ-1 (15 mg/kg) treated group, n = 5/group. Subcutaneous injection was given daily. After 3 weeks treatment, the tumors were excised and measured for final size (Figure 3B). The tumor volume in the normal saline group reached 700 mm^3 (Figure 3C). In contrast, in the tumor-bearing mice treated with BMPQ-1, the tumor volume was ∼300 mm^3."}, "[1]": {"test_system": "TTA45 (DNA, G4) GGGTTAGGGTTAGGGTTAGGGTTAGGGTTAGGGTTAGGGTTAGGG", "test": "CD melting", "conditions": "50 mM K+; 10 mM Tris-HCl pH 7.4; 5 µM DNA, 20 µM compound"}, "A549 cells": {"test_system": "A549 cells", "test": "Annexin V-FITC/PI apoptosis detection", "type": "cell-based, human", "conditions": "A549, 3 μM, 24 h", "description": "The A549 cells treated with BMPQ-1 or DMSO were washed twice with PBS and detected using the annexin V-FITC/PI apoptosis detection kit (DOJINDO, Japan). The cells were pelleted and resuspended in the binding buffer. Annexin V-FITC and PI were added, and the cells were disturbed by gently vortexing the samples prior to incubation for 5 min in the dark. Emitted florescence was quantitated by flow cytometry (BD FacsAria, USA). For each analysis, 2.0 × 10^4 events were collected.\nFigure S10. BMPQ-1 induced cell apoptosis of A549. (A) Apoptosis evaluation of A549 cells after 24 h treatment with various concentrations of BMPQ-1. The cells were collected and stained with Annexin V–FITC and PI. Region LL represents the viable cells; LR represents the early apoptotic cells; UR represents the late apoptotic cells; UL represents damaged cells and cell debris.\n(B) Percentage of apoptosis in A549 cells. […]"}, "[2]": {"test_system": "c-KIT1 (DNA, G4) AGGGAGGGCGCTGGGAGGAGGG", "test": "CD melting", "conditions": "50 mM K+; 10 mM Tris-HCl pH 7.4; 5 µM DNA, 20 µM compound"}, "[3]": {"conditions": "15 mg/kg subcutaneous daily, 3 weeks"}}, "data": [{"smiles": "Cc1ccc(Cn2cc3c(-c4ccc5c(c4)OCO5)nnc-3c3cc4c(cc32)OCO4)cc1", "note": "[BMPQ-1]", "values": [{"measurement": "mouse body weight", "setting": "HT29 xenograft; [3]", "value": "no significant change"}, {"measurement": "tumor weight", "setting": "HT29 xenograft; [3]", "value": "obvious decrease"}, {"measurement": "tumor volume", "setting": "HT29 xenograft; 15 mg/kg subcutaneous daily, 3 weeks, saline group 700 mm^3", "value": "~300", "unit": "mm^3"}, {"measurement": "tumor growth rate in mouse", "setting": "HT29 xenograft; versus control", "value": "by half"}, {"measurement": "ΔTm", "setting": "[1]", "value": 14.6, "unit": "°C"}, {"measurement": "population of apoptotic cells", "setting": "A549 cells", "value": "approximately 60%"}, {"measurement": "ΔTm", "setting": "[2]", "value": 6.6, "unit": "°C"}]}]}
